Measured values: ChEMBL document CHEMBL1671667, “Impact of low-level resistance to fluoroquinolones due to qnrA1 and qnrS1 genes or a gyrA mutation on ciprofloxacin bactericidal activity in a murine model of Escherichia coli urinary tract infection” (Antimicrob Agents Chemother, 2009)
Values after ≈ are worked out from the molar mass of the structure shown.

Assays:
Klebsiella pneumoniae = test: Antimicrobial activity against qnr-negative Klebsiella pneumoniae C2 harboring qnrA1 gene
in vivo = settings: CBA, mouse, sc, 2.5 mg/kg
Description: Cmax in immunocompetent CBA mouse infected with Escherichia coli at 2.5 mg/kg, sc administered as single dose after 15 mins by liquid chromatography

O=C(O)c1cn(C2CC2)c2cc(N3CCNCC3)c(F)cc2c1=O [CIPROFLOXACIN]
MIC (Klebsiella pneumoniae): 4 µg/mL (≈ 12.1 µM)
Cmax at 0.25 h (in vivo): 1100 ng/mL
